US20240252662A1, “PEPTIDE DRUG CONJUGATES SPECIFIC TO FIBRONECTIN ISOTYPES FOR CANCER THERAPY” (priority 2021, published 2024)
“Also recorded” adds a separate entry of the source.

Tests used:
[1] = system: PC3 prostate tumor xenografts; conditions: for tumor volume by the end of the treatment (mean±SD): daily i.p. 7.34 μmol/kg/day for 29 days, n=6, PBS control 1223±136 mm^3
Source text: (§1) Anti-tumor efficacy of ZD2-HZ-JAAP conjugate was also investigated using the mice bearing PC3 prostate or 4T1 breast tumor xenografts. For tumor xenografts, PC3 prostate or 4T1 breast cancer cells suspended in Matrigel-PBS were subcutaneously injected into the flank of nude mice or mammary fat pads of BALB/C mice, respectively. Tumor volumes were monitored and measured twice a week using a Vernier caliper. When the average tumor volumes reached 100 mm^3 for PC3 tumors, and 45 mm^3 for 4T1 tumors, the mice bearing tumor xenografts were randomized into PBS control, JQ1 and ZD2-HZ-JAAP treatment groups (n=6 for PC3 tumors or 5 for 4T1 tumors). Free JQ1 and ZD2-HZ-JAAP conjugates were administrated by daily intraperitoneal injection for 29 days at a dose of 7.34 μmol/kg/day. Tumor size and bodyweight were monitored twice a week. The tumor sizes were measured with Vernier calipers, and tumor volumes were calculated using the equation V=(L*W2)/2.

[2] = system: PC3 prostate cancer, 4T1 and MDA-MB-231 breast cancer cells; assay: cell cytotoxicity of DOX conjugates in PC3, 4T1 and MDA-MB-231 cells; assay type: cell-based; conditions: at 2.5, 5 and 10 μM; compared with doxorubicin; FIG. 11
Procedure: The reason for the lower cytotoxicity is the slow release of DOX from the ZD2-AM-DOX conjugated with an amide bond.
The cell cytotoxicity of the ZD2-PEG-HZ-DOX was tested using PC3 prostate cancer, 4T1 and MDA-MB-231 breast cancer cells at concentrations of […].

[3] = system: 4T1 breast tumor xenografts; assay: anti-tumor efficacy of ZD2-HZ-JAAP, 4T1 breast tumor xenografts; assay type: in vivo, BALB/C mice; conditions: daily i.p. 7.34 μmol/kg/day for 29 days; n=5; PBS control 645±240 mm^3
Source text: as §1

[4] = system: DLD-1-DR drug resistant colon cancer, PANC-1 and BXPC3 pancreatic cancer, CAL27, SCC4 and HSC3 head and neck cancer cells, MDA-MB-231 and 4T1 breast cancer …; assay: cell cytotoxicity of ZD2-HZ-JAAP in cancer cell panel; assay type: cell-based; conditions: after 48 hours incubation; compared with JQ1 or JAAP; FIG. 2
Procedure: FIG. 2 provides graphs showing the cell viability of different cancer cells treated with ZD2-HZ-JAAP.
The cell cytotoxicity of ZD2-HZ-JAAP was tested using DLD-1-DR drug resistant colon cancer, PANC-1 and BXPC3 pancreatic cancer, CAL27, SCC4 and HSC3 head and neck cancer cells, MDA-MB-231 and 4T1 breast cancer cells, PC3 and C4-2 prostate cancer cells.

[5] = system: human MDA-MB-231 triple negative breast cancer tumors; assay: in vivo anti-tumor activity of ZD2-HZ-JAAP, MDA-MB-231 tumors; parameters: species or system nude mice
Procedure: The in vivo anti-tumor activity of ZD2-HZ-JAAP was evaluated in the nude mice carrying human MDA-MB-231 triple negative breast cancer tumors. The ZD2-HZ-JAAP drug conjugate was administrated to the mice with human MDA-MB-231 tumors by daily i.p. injection at a dose of 4.4 μmol/kg/day for 30 days. The tumor sizes and body weights of the mice were measured twice a week. The tumor growth was also monitored using bioluminescence imaging on the day 1, 16, and 25 after drug administration, and MRI imaging on the day 7 and 28 after the drug administration. For the ZD2-HZ-JAAP treatment group the tumor growth was inhibited with average tumor size of 80 mm^3 after 30-days of drug treatment, while for the no-treatment control group the tumors were kept growing with average tumor size of 580 mm^3 after 30-days of no treatment. […] In literature, the treatment dose of JQ1 is 50 mg/kg/day or 0.11 mmol/kg/day by i.p. injection to treat the mice with tumors. The dose of ZD2-HZ-JAAP administered by the inventors is 4.4 μmol/kg/day, which is 25-times lower than JQ1 dose. […] Since ZD2-HZ-JAAP is a target-drug that is delivered and accumulated to the tumor site, which results in low toxicity for normal tissues. Target-drug delivery results in high drug concentration at tumor site, and low concentration at normal tissues with efficient killing of tumor cells and low toxicity to normal cells.

[6] = system: 4T1 breast tumor xenografts; conditions: i.p. 8.28 μmol/kg/week
Procedure: Anti-tumor efficacy of ZD2-HZ-DOX conjugate was investigated using the mice bearing 4T1 breast tumor xenografts. For tumor xenografts, 2×10^5 4T1 breast cancer cells suspended in Matrigel-PBS were injected into the mammary fat pads of each BALB/C mouse. Tumor volumes were monitored and measured twice a week using a Vernier caliper. When the average tumor volumes reached 100 mm^3, the BALB/C mice bearing 4T1 breast tumors were randomized into PBS control, free doxorubicin and ZD2-HZ-DOX treatment groups (n=5). Free doxorubicin and ZD2-HZ-DOX conjugates were administrated by intraperitoneal injection for 23 days at a dose of 8.28 μmol/kg/week with 3-injections per week, and 2.76 μmol/kg for each injection. Tumor size and bodyweight were monitored twice a week. The tumor sizes were measured with Vernier calipers, and tumor volumes were calculated using the equation V=(L*W2)/2.

## Cc1sc2c(c1C)C(c1ccc(Cl)cc1)=N[C@@H](CC(=O)OC(C)(C)C)c1nnc(C)n1-2 [JQ1, reference compound]
[1]
  tumor volume by the end of the treatment (mean±SD): 537±170 mm^3
[1]; same dose as ZD2-HZ-JAAP, 7.34 μmol/kg/day i.p.
  suppression of tumor growth: didn't efficiently suppress tumor growth

## Cc1ccc(C(Cl)(c2ccccc2)c2ccccc2Cl)cc1 (stereo not shown) [ZD2-AM-DOX]
[2]
  cell cytotoxicity: lower than that of doxorubicin

## Cc1ccc(C(Cl)(c2ccccc2)c2ccccc2Cl)cc1 (stereo not shown) [ZD2-HZ-JAAP]
[3]
  tumor volume by the end of the treatment (mean±SD): 46±30 mm^3
[4]
  cell cytotoxicity: lower than that of JQ1 or JAAP
[1]
  tumor volume by the end of the treatment (mean±SD): 150±80 mm^3
[1]; mice bearing PC3 or 4T1 tumors, 29 days of treatment, 7.34 μmol/kg/day i.p.
  survival during treatment period: all mice were survived
[1]; mice bearing PC3 or 4T1 tumors, daily i.p. 7.34 μmol/kg/day, 29 days
  bodyweight change relative to initial weight: ≤ 10%
[5]; 4.4 μmol/kg/day, 25-times lower than literature JQ1 dose
  tumor growth inhibition: efficiently inhibited the triple-negative breast cancer tumor growth
[5]; after 30 days of treatment, daily i.p. 4.4 μmol/kg/day, no-treatment control 580 mm^3
  average tumor size: 80 mm^3
[5]; daily i.p. 4.4 μmol/kg/day for 30 days, vs no-treatment group
  body weight of the mice: kept growing; also recorded: no significant difference

## COc1cccc2c1C(=O)c1c(O)c3c(c(O)c1C2=O)C[C@@](O)(C(=O)CO)C[C@@H]3O[C@H]1C[C@H](N)[C@H](O)[C@H](C)O1 [doxorubicin]
[6]; 24-day treatment period
  survival: One mouse died on day 10, and all remaining mice died on day 11
[6]; at day 10
  loss of bodyweight relative to initial weight: 25%
